The values below come from ChEMBL document CHEMBL1135564, “Diaryl-dialkyl-substituted pyrazoles: regioselective synthesis and binding affinity for the estrogen receptor” (Bioorg Med Chem Lett, 2002).

Test [1] deals with T1, Estrogen receptor (Homo sapiens) (UniProt P03372).
T1 sequence (whole entry): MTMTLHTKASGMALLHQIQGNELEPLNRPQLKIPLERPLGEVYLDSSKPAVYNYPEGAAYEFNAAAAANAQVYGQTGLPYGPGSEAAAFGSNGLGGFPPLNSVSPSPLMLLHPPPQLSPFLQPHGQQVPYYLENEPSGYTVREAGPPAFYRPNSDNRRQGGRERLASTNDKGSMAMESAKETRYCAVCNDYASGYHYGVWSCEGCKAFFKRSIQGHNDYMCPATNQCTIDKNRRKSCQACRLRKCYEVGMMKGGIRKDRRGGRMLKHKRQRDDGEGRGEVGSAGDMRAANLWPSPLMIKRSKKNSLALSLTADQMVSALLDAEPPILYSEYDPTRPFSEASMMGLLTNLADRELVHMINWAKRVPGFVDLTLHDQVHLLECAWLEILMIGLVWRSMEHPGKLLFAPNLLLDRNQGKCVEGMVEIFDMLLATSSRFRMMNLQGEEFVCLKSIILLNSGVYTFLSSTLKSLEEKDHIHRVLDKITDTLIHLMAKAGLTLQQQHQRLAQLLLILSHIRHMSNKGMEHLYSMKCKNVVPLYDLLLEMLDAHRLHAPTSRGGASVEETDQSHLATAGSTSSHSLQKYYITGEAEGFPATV
Kind of test: Relative binding affinity (RBA) for human Estrogen receptor alpha compared to estradiol.

Test [2] deals with Estrogen receptor beta (Homo sapiens) (UniProt Q92731). Kind of test: Relative binding affinity (RBA) for human Estrogen receptor beta compared to estradiol.
The target in test [3] is Estrogen receptor (Homo sapiens) (UniProt Q92731+P03372). Kind of test: Selectivity ratio as relative binding affinity for estrogen receptor alpha and beta. The format is protein assay.

SMILES strings stand for the structures.

Sequence of Estrogen receptor beta (Homo sapiens) (Q92731 whole entry): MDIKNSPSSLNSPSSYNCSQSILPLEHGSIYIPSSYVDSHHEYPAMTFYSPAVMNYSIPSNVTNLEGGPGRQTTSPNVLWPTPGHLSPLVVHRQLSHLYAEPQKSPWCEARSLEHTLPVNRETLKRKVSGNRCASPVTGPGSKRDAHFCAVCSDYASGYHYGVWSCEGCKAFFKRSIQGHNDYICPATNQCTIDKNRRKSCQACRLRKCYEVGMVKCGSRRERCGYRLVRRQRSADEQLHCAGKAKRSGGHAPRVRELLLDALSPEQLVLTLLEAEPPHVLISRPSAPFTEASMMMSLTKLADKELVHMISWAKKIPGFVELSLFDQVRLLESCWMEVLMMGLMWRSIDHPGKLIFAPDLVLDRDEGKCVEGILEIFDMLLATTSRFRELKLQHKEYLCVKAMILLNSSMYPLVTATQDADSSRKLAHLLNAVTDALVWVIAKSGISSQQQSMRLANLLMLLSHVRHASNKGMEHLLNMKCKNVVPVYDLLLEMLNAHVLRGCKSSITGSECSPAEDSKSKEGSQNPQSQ

On to `CCCc1c(-c2ccc(O)cc2)nn(C2CCCC2)c1-c1ccc(O)cc1`, for which the Affinity in test [1] worked out at 74; in test [2] it was 71. Moreover, the Ratio in test [3] was 1.

Regarding `CCCc1c(-c2ccc(O)cc2)nn(C2CCCCC2)c1-c1ccc(O)cc1`, the Affinity in test [1] was found to be 30; in test [2], 13. In test [3], the Ratio is 2.3.

`Oc1ccc(-c2nn(-c3ccc(O)cc3)c3c2CCCC3)cc1`: the Affinity in test [1] came out at 0.56; in test [2], 0.042. Besides, the Ratio in test [3] stood at 13.

In the case of `CCCc1c(-c2ccc(O)cc2)nn(-c2ccc(O)cc2)c1C1CCCCC1`, the Affinity in test [1] was found to be 1.1; in test [2], 0.11. In addition, the Ratio in test [3] turned out to be 9.4.

Consider `Oc1ccc(-c2nn(-c3ccc(O)cc3)c3c2CCCCC3)cc1`, for which the Affinity stood at 0.19 in test [1] and 0.047 in test [2]. Further, the Ratio in test [3] came out at 4.

For `CCc1c(-c2ccc(O)cc2)nn(-c2ccc(O)cc2)c1C1CCCCC1`, the Affinity was determined as 0.59 in test [1] and 0.14 in test [2]. Further, the Ratio in test [3] was 4.2.

Regarding `CCCc1c(-c2ccc(O)cc2)nn(-c2ccc(O)cc2)c1C1CCCC1`, the Affinity in test [1] was determined as 3.6; in test [2], 0.6. Besides, in test [3], the Ratio was found to be 6.

With `CCc1c(-c2ccc(O)cc2)nn(-c2ccc(O)cc2)c1C1CCCC1`, the values for the Affinity in test [1] and in test [2] were 2.1 and 0.23, respectively. Also, the Ratio in test [3] amounted to 8.9.

Turning to `CCCc1c(-c2ccc(O)cc2)nn(-c2ccc(O)cc2)c1-c1ccc(O)cc1`, the Affinity in test [1] stood at 49; in test [2], 0.12. The Ratio in test [3] amounted to 410.
